Patent US20120024744A1, “Soil-related and/or Crop-related Applications for Chlorine Dioxide” (DHARMA IP, LLC, priority 2010, published 2012)

Experiment: Enhanced solubility of beta-cyclodextrin in water containing ClO2
Assay type: physicochemical
Conditions: 100 g slurries, 5% (w/w) in 8000 ppm ClO2 vs ultrapure water, 200 rpm, 3 days

With OC[C@H]1O[C@@H]2O[C@H]3[C@H](O)[C@@H](O)[C@@H](O[C@H]4[C@H](O)[C@@H](O)[C@@H](O[C@H]5[C@H](O)[C@@H](O)[C@@H](O[C@H]6[C@H](O)[C@@H](O)[C@@H](O[C@H]7[C@H](O)[C@@H](O)[C@@H](O[C@H]8[C@H](O)[C@@H](O)[C@@H](O[C@H]1[C@H](O)[C@H]2O)O[C@@H]8CO)O[C@@H]7CO)O[C@@H]6CO)O[C@@H]5CO)O[C@@H]4CO)O[C@@H]3CO [beta-cyclodextrin] the “weight of dried undissolved beta-cyclodextrin, ClO2 containing slurry less than control slurry” value was 0.32 g.
